Tests used:
Leaf [1] = assay: Residue remaining in Solanum lycopersicum (tomato) plant leaves at 300 g/L treated under green house condition measured after 11 days relative to initial level; conditions: 264 h
Leaf [2] = assay: Drug recovery in Solanum lycopersicum (tomato) plant leaves at 1.83 ug/cm'2 of spiking level; type: ADME
Leaf [3] = assay: Drug degradation in Solanum lycopersicum (tomato) plant leaves at 300 g/L treated under green house condition measured after 6 days relative to initial level; type: ADME; conditions: 144 h
Fruit [4] = assay: Drug degradation in Solanum lycopersicum (tomato) plant fruits at 300 g/L treated under green house condition measured after 15 days relative to initial level; type: ADME; conditions: 360 h
Leaf [5] = assay: Residue remaining in Solanum lycopersicum (tomato) plant leaves at 300 g/L treated under green house condition measured after 7 days relative to initial level; conditions: 168 h
[6] = Half life in Solanum lycopersicum (tomato) plant leaves at 300 g/L treated under green house condition; type: ADME, Leaf
Leaf [7] = assay: Drug degradation in Solanum lycopersicum (tomato) plant leaves at 300 g/L treated under green house condition measured after 3 days relative to initial level; type: ADME; conditions: 72 h
Leaf [8] = assay: Drug degradation in Solanum lycopersicum (tomato) plant leaves at 300 g/L treated under green house condition measured after 1 day relative to initial level; type: ADME; conditions: 24 h
Fruit [9] = assay: Drug degradation in Solanum lycopersicum (tomato) plant fruits at 300 g/L treated under green house condition measured after 8 days relative to initial level; type: ADME; conditions: 192 h
Leaf [10] = assay: Drug degradation in Solanum lycopersicum (tomato) plant leaves at 300 g/L treated under green house condition measured after 15 days relative to initial level; type: ADME; conditions: 360 h
[11] = Half life in Solanum lycopersicum (tomato) plant fruits at 300 g/L treated under green house condition; type: ADME, Fruit
Fruit [12] = assay: Drug recovery in Solanum lycopersicum (tomato) plant fruits at 0.14 ug/g of spiking level; type: ADME
Leaf [13] = assay: Drug degradation in Solanum lycopersicum (tomato) plant leaves at 300 g/L treated under green house condition measured after 10 days relative to initial level; type: ADME; conditions: 240 h
Leaf [14] = assay: Drug degradation in Solanum lycopersicum (tomato) plant leaves at 300 g/L treated under green house condition measured after 4 days relative to initial level; type: ADME; conditions: 96 h
Fruit [15] = assay: Drug degradation in Solanum lycopersicum (tomato) plant fruits at 300 g/L treated under green house condition measured after 22 days relative to initial level; type: ADME; conditions: 528 h
Fruit [16] = assay: Drug degradation in Solanum lycopersicum (tomato) plant fruits at 300 g/L treated under green house condition measured after 10 days relative to initial level; type: ADME; conditions: 240 h
Leaf [17] = assay: Drug degradation in Solanum lycopersicum (tomato) plant leaves at 300 g/L treated under green house condition measured after 5 days relative to initial level; type: ADME; conditions: 120 h
Fruit [18] = assay: Residue remaining in Solanum lycopersicum (tomato) plant fruits at 300 g/L treated under green house condition measured after 3 days relative to initial level; conditions: 72 h
Leaf [19] = assay: Drug residue remaining in Solanum lycopersicum (tomato) plant leaves at 300 g/L treated under green house condition measured after 22 days relative to initial level; conditions: 528 h
Leaf [20] = assay: Drug degradation in Solanum lycopersicum (tomato) plant leaves at 300 g/L treated under green house condition measured after 8 days relative to initial level; type: ADME; conditions: 192 h
Fruit [21] = assay: Drug degradation in Solanum lycopersicum (tomato) plant fruits at 300 g/L treated under green house condition measured after 1 day relative to initial level; type: ADME; conditions: 24 h

**Q.** For `Cc1cc(C)nc(Nc2ccccc2)n1` [PYRIMETHANIL], which Residue remaining (Leaf [1]) is on record?
**A.** Its Residue remaining is 0%.

**Q.** And the Drug recovery (Leaf [2])?
**A.** Its Drug recovery is 91%.

**Q.** What about the Residue remaining (Leaf [3]) of the same molecule?
**A.** The Residue remaining was 11%.

**Q.** And the Residue remaining (Fruit [4])?
**A.** The Residue remaining was 5%.

**Q.** What about the Residue remaining (Leaf [5]) of the same molecule?
**A.** Its Residue remaining is 11%.

**Q.** And the half-life [6]?
**A.** The half-life was 96 h.

**Q.** What about the Residue remaining (Leaf [7]) of the same molecule?
**A.** Its Residue remaining is 41%.

**Q.** And the Drug remaining (Leaf [8])?
**A.** Its Drug remaining is 100%.

**Q.** And the Residue remaining (Fruit [9])?
**A.** The Residue remaining was 16%.

**Q.** What about the Drug degradation (Leaf [10]) of the same molecule?
**A.** The Drug degradation was 0%.

**Q.** And the half-life [11]?
**A.** Its half-life is 137 h.

**Q.** What about the Drug recovery (Fruit [12]) of the same molecule?
**A.** The Drug recovery was 99%.

**Q.** And the Drug degradation (Leaf [13])?
**A.** Its Drug degradation is 0.02%.

**Q.** What about the Residue remaining (Leaf [14]) of the same molecule?
**A.** The Residue remaining was 22%.

**Q.** And the Residue remaining (Fruit [15])?
**A.** The Residue remaining was 0%.

**Q.** And the Drug remaining (Fruit [16])?
**A.** Its Drug remaining is 15%.

**Q.** And the Drug remaining (Leaf [17])?
**A.** Its Drug remaining is 25%.

**Q.** What about the Residue remaining (Fruit [18]) of the same molecule?
**A.** The Residue remaining was 79%.

**Q.** And the Residue remaining (Leaf [19])?
**A.** Its Residue remaining is 0%.

**Q.** What about the Drug degradation (Leaf [20]) of the same molecule?
**A.** Its Drug degradation is 0%.

**Q.** And the Drug remaining (Fruit [21])?
**A.** The Drug remaining was 100%.
